# Key:
# [1] = biological target: T1, HSP90α (Homo sapiens, UniProt P07900); assay: HSP90 binding assay (fluorescent ELISA, competition with biotinylated Geldanamycin); details: reported as range of IC50's
# T1 construct: purchased Stressgen Lot B506492
# Description: The biochemical assay is described as follows.
# Purified HSP90α […] was purchased from Stressgen Lot B506492. Single use aliquots of the 1.15 mg/ml stock were prepared and stored at −80° C. to avoid multiple freeze-thaw cycles.
# A Nunc Maxisorb plate was coated overnight at 4° C. with 200 ng of HSP90/well dissolved in DPBS. The following day the plates were washed with TBST and blocked for 2 h at room temperature with blocking buffer (20 mM HEPES pH 7.3, 1 mM EDTA, 5 mM MgCl2, 100 mM KCl, 5% BSA). Blocking buffer was removed by washing plates with TBST, and test compounds dissolved in assay buffer (20 mM HEPES pH 7.3, 1 mM EDTA, 5 mM MgCl2, 100 mM KCl, 1% BSA) were added to plate. […] The reaction is incubated for 60 minutes at room temperature. […] Competitive inhibitory compounds will block this interaction from occurring.
# The reactions were stopped by washing the plate with TBST. The binding of the bio-GM is detected by the addition of an Alkaline Phosphatase tagged Streptavidin molecule. A TBST wash eliminates any unbound detection agent, and the Alkaline Phosphate substrate Attophos is introduced. This substrate generates a fluorescent signal at […] when excited at […]. These plates can be monitored on either a Victor 5 or Perkin Elmer Envision multilabel reader.
# [2] = system: SK-BR-3; assay: MTS assay (cell viability); assay type: cell-based; details: Homo sapiens; SK-BR-3 cells, 72 hours with compound, 50% reduction in number of viable cells; read-out: IC50'S(SK-BR-3)
# Description: The anti-proliferative effects of biochemically active compounds were measured utilizing the MTS assay. The generalized procedure is describes as follows:
# The cells are then trypsinized and re-plated in 96 well sterile cell culture plates in 130 μl/well growth media at a density that allows confluency of approximately 50% after 72 hours of growth. These starting densities vary across cell lines based on individual doubling times. The day following plating, the cell was treated with an appropriate concentration of compound diluted in DMSO. Cell plates were allowed to grow undisturbed at 37° C., 5% CO2 for 72 h. After 72 hours, 30 μl of a solution of 0.046 mg/ml Phemazine methosulfate (PMS) (Fluka product 68600) and 1.9 mg/ml MTS reagent ([3-(4,5-dimethylthiazol-2-yl)-5-(3 carboxymethoxyphenyl)-2-(4-sulfophenyl)-2H-tetrazolium, inner salt (Promega product G1111) is added directly to the well. Plate is re-incubated at 37° C., 5% CO2 for 4 hr. Plates were then read on the Perkin Elmer Envision to determine absorbance at 490 nm.
# Cell viability was determined by measuring the activity of dehydrogenase enzymes in metabolically active cells using a tetrazolium compound, MTS. The assay was performed as described in Promega Technical Bulletin No. 169 (CellTiter 96 Aqueous Non-Radioactive Cell Proliferation Assay). Ten human cancer cell lines were assayed (see, e.g. Table 1). Cells were maintained at 37° C. and 5% CO2 in DMEM media (4.5 g/L glucose) supplemented with 10% heat-inactivated FBS, 10 mM L-glutamine, and 10 mM Hepes pH 7.5. Briefly, cells were seeded in 96-well plates as set forth in Table 1 and incubated for 16-24 hours. Candidate compounds were serially diluted in DMSO, further diluted in cell culture media, and then added to cells (final DMSO concentration of 0.33%). Cells were incubated in the presence of candidate compound for 72 hours. MTS stock solution (MTS 2 gm/L, PMS […] in PBS) was added to the cells (final concentration MTS […] and PMS 7.67 mg/L) and incubated for 4 hours. SDS was added to a final concentration of 1.4% and absorbance at 490 nm was measured within two hours using a plate reader. The IC50 was defined as the concentration of compound that results in a 50% reduction in the number of viable cells as compared to control wells treated with DMSO only (0.33%) and was calculated using non-linear regression analysis. IC50 values were given in Table 3 for the compounds listed.
# [3] = aqueous solution; cited from earlier work
# [4] = clinical trials; cited from earlier work
IC50 [1],IC50 [2],Compound,also measured
10 to 50 µM,,"COc1ccc(C(C)C)cc1-c1cc(-c2nnnn2CCc2ccccc2)c(O)cc1O [Compound 26, 5′-isopropyl-2′-methoxy-5-(1-phenethyl-1H-tetrazol-5-yl)-biphenyl-2,4-diol]",melting point: 206 to 209 °C
,13.7 µM,"COc1ccc(C(C)C)cc1-c1cc(-c2nnnn2C2CCC2)c(O)cc1O [Compound 108, 5-(1-Cyclobutyl-1H-tetrazol-5-yl)-5′-isopropyl-2′-methoxy-biphenyl-2,4-diol]",
,3.22 µM,COc1ccc(C(C)C)cc1-c1cc(-c2nnnn2CCCc2ccccc2)c(O)cc1O [Compound 100],
,1.58 µM,COc1ccc(C(C)C)cc1-c1cc(-c2nnnn2C(C)C)c(O)cc1O [Compound 110],
1 to 10 µM,,"COCCCn1nnnc1-c1cc(-c2cc(C(C)C)ccc2OC)c(O)cc1O [Compound 16, 5′-isopropyl-2′-methoxy-5-[1-(3-methoxy-propyl)-1H-tetrazol-5-yl]-biphenyl-2,4-diol]",melting point: 174 to 176 °C
1 to 10 µM,,CCN1CCC(n2nnnc2-c2cc(-c3cc(C(C)C)ccc3OC)c(O)cc2O)CC1 [Compound 38],
10 to 50 µM,,"COc1ccc(C(C)C)cc1-c1cc(-c2nnnn2C2CCN(C(=O)CC(C)C)CC2)c(O)cc1O [Compound 40, 1-{4-[5-(4,6-Dihydroxy-5′-isopropyl-2′-methoxy-biphenyl-3-yl)-tetrazol-1yl]-piperidin-1-yl}-3-methyl-butan-1-one]",
,13.5 µM,"COc1ccc(C(C)C)cc1-c1cc(-c2nnnn2CCCOC(C)C)c(O)cc1O [Compound 99, 5-[1-(3-Isopropoxy-propyl)-1H-tetrazol-5-yl]-5′-isopropyl-2′-methoxy-biphenyl-2,4-diol]",

# Second part, the compound before the results:
Compound,IC50 [1],IC50 [2],also measured
"COCCCn1nnnc1-c1cc(-c2cccc(C(F)(F)F)c2)c(O)cc1O [Compound 7, 5-[1-(3-methoxy-propyl)-1H-tetrazol-5-yl]-3′-trifluoromethyl-biphenyl-2,4-diol]",10 to 50 µM,15.3 µM,melting point: 144 to 182 °C
"CO[C@H]1/C=C\C=C(/C)C(=O)NC2=CC(=O)C(NCCN(C)C)=C(C[C@@H](C)C[C@H](OC)[C@H](O)[C@@H](C)/C=C(\C)[C@@H]1OC(N)=O)C2=O [DMAG, 17-Dimethylaminoethylamino-17-demethoxygeldanamycin]",,,solubility [3]: low solubility
COC1=C2C[C@@H](C)C[C@H](OC)[C@H](O)[C@@H](C)/C=C(\C)[C@H](OC(N)=O)[C@@H](OC)/C=C\C=C(/C)C(=O)NC(=CC1=O)C2=O [geldanamycin],,,solubility [3]: poorly soluble; hepatotoxicity [4]: hepatotoxicity proved problematic
"C=CCNC1=C2C[C@@H](C)C[C@H](OC)[C@H](O)[C@@H](C)/C=C(\C)[C@H](OC(N)=O)[C@@H](OC)/C=C\C=C(/C)C(=O)NC(=CC1=O)C2=O [Compound 17-AAG, 17-Allylamino-17-demethoxygeldanamycin]",,,solubility [3]: low solubility
CCC(C)CN(CCO)C(=O)c1cccc(-c2cc(-c3nnnn3CCCOC)c(O)cc2O)c1 (stereo not drawn) [Compound 71],> 50 µM,,
COCCCn1nnnc1-c1cc(-c2cccc(C(=O)NCCCN(C)C)c2)c(O)cc1O [Compound 65],> 50 µM,,
CCCCn1nnnc1-c1cc(-c2cccc(C(=O)NCCc3cccc(OC)c3)c2)c(O)cc1O [Compound 57],> 50 µM,,
COCCCn1nnnc1-c1cc(-c2ccc(OC(F)(F)F)cc2)c(O)cc1O [Compound 73],> 50 µM,,
